Here are results for two compounds from patent publication US5298621A, “Oligopeptide derivatives of ipoxantine endowed with immunomodulating activity and pharmaceutical compositions containing same” (Sigma-Tau Industrie Farmaceutiche Riunite S.p.A., priority 1990, dated 1994).

In data set [1] the test system is rat granulocytes. Put plainly: "In vitro" chemotactic activity of rat granulocytes (modified Boyden chamber). Type of data set: cell-based. The following applies: for "in vitro" chemotaxis (μ ± S.E.): 10 mcg/mL, granulocytes of untreated rats; for chemotactic activity of rat granulocytes versus the control (in words): in vitro and in vitro-ex vivo. The procedure: (§1) Test 3 Assessment of the "in vitro" and "in vitro-ex vivo" effect of ST 657 and ST 789 on the chemotactic activity of rat granulocytes.
(§2) Male Fisher-344 rats aged about 3 months were used (6-8 animals for each experimental group).
(§3) The compounds were tested "in vitro", 10 mcg/mL, and "in vitro-ex vivo" following administration of 25 mg/kg/day from day -5 to day -1 (taking of blood sample at day 0).
(§4) The experimental procedure is described by Cates, L. K. et al (1987), Modified Boyden chamber method of measuring polymorphonuclear leukocyte chemotaxis, Leukocyte Chemotaxis, Raven Press, N.Y. 67.
(§5) Blood samples were collected from animals sacrificed by decapitation. Following passage through heparinized gauze, blood was diluted (1:1) with dextran (1.5% in saline) and allowed to sediment for 90 minutes.
The concentration of the granulocytes, collected from blood via known techniques, was adjusted to 2×10^6 cells/mL in Hank's medium. They were then seeded on 3 μMillipore filters which were placed in migration chambers.
These chambers were prepared using Hank's medium to evaluate the spontaneous migration, and casein (2 mL of solution, at the concentration 5 mg/mL) to evaluate the induced migration.
In performing the "in vitro" test, granulocytes of untreated animals were used, to which the compounds had been added before seeding thereof on the Millipore filters preparation of migration chambers.
Following incubation of the samples at 37° C. and 5% CO2 for 60 minutes, the filters were stained and mounted on microscope slides.
Microscopic examination of samples versus control allows the distance (in μm) run by the two most forward granulocytes in the framed field to be determined. Granulocyte migration is determined by calculating the mean value of 10 readings performed as a whole on two filters per sample.
The results obtained were statistically processed with Student's "t" test (Biostatistics in Pharmacology, loc, cit.).

Data set [2] relates to rat granulocytes. Put plainly: "In vitro-ex vivo" chemotactic activity of rat granulocytes. The following applies: 25 mg/kg/day i.p. from day -5 to day -1, blood sample at day 0. The procedure:
as §1, §2, §3, §4, §5
The concentration of the granulocytes, collected from blood via known techniques, was adjusted to 2×10^6 cells/mL in Hank's medium. They were then seeded on 3 μMillipore filters which were placed in migration chambers. […]
Microscopic examination of samples versus control allows the distance (in μm) run by the two most forward granulocytes in the framed field to be determined. Granulocyte migration is determined by calculating the mean value of 10 readings performed as a whole on two filters per sample. […]

The subject of the next data set is Leukemia L 1210 cells. As to the kind of experiment: Protective effect in L 1210 Leukemia-bearing mice. The following applies: for Dead/total / MST (mean survival time calculated by the median and the first interquartile range): 0.25 mg/kg i.p. from day +1 to day +10; for Weight control (x ± S.E.): 0.25 mg/kg/day day +1 to +10, in g (unit assumed); for number of surviving animals at the indicated day: 0.25 mg/kg/day. The class given is in vivo. The procedure:
Test 4 Assessement of the protective effect of ST 657 and ST 789 in tumor-bearing mice.
Male DBA/2 mice and male CD1 mice (Charles River), both aged 6 weeks, were used.
DBA/2 mice were inoculated i.p. with 1×10^5 Leukemia L 1210 cells (ATCC-American Type Culture Collection-Cell Lines & Hybridomas, 5th Ed., 1985) in 0.1 mL of Hank's medium.
The compounds were adminstered i.p. in sterile saline (0.25 mg/kg/day) from day +1 to day +10 (tumor transplantation at day 0).
Also the body weight of the animals was monitored, from day 0 to day +16 for the L 1210 leukemia-bearing mice, and from day 0 to day +21 for the S 180 sarcoma-bearing mice.
Monitoring of body weight was conducted in order to evaluate the evolution of the neoplastic process. Compounds activity was assessed as Mean Survival Time (MST).

The subject of a further data set is splenocytes. Put plainly: "In vitro-ex vivo" mytogen (PHA)-induced splenocyte proliferation in mice. The procedure:
Test 5 Assessment of the "in vitro-ex vivo" effect of ST 733 and ST 789 on the mytogen (PHA)-induced splenocyte proliferation in mice.
Male B6 D2 F1 mice (Charles River, Italy) aged 7-8 weeks (4 animals per group) were used.
PHA (phytohemagglutinine) active on T lymphocytes was used as mytogen. The mytogen was tested at three different concentrations (suboptimal, optimal, superoptimal): 0.5, 2 and 4 mcg/mL/well.
The compounds were administered i.p. 25 mg/kg/day from day -5 to day -1 (spleen excision at day 0).
The experimental procedure was conducted substantially as described by Kirchner et al, "Splenic suppressor macrophages induced in mice by injection of C. parvum", J. Immunol., 1975, 115:1212.
In particular, the cell suspensions obtained from the spleens of the animals of the same group were pooled and the cell concentration was adjusted to 5×10^6 cell/mL.
To volumes of 0.1 mL of each sample, equal volumes of the mytogen preparation were added so as to obtain the previously indicated final concentrations.
Each sample was prepared in triplicate in U-bottom microtiters. A control, to which 0.1 mL of medium was added instead of the mytogen, was also prepared. The control permits the extent of spontaneous proliferation in the absence of stimulation to be assessed.
The samples were incubated at 37° C. for 48 hours and then they were pulsed with 20 μL ^3 H-TdR (25 μCi/mL).
After 18 hours of further incubation, the cells were collected on filters and counted in a beta-counter to evaluate the incorporated radioactivity (in cpm).
The results for each sample are expressed by calculating the value of the area under the curve (AUC) obtained by plotting the values of the incorporated radioactivity (in cpm) versus the three concentrations of mytogen.
In addition to AUC, also the stimulation index (SI) is considered, that is defined as follows: [formula]

For a further data set, the system named is thymocytes. Put plainly: "In vitro-ex vivo" mytogen (PHA, Con A)-induced murine thymocite proliferation. More on the design: species or system mice. Particulars: 25 mg/kg/day i.p. from day -4 to day -1. The procedure: Test 7 Assessment of the "in vitro-ex vivo" effect of ST 754, ST 785 and ST 789 on the mytogen (PHA, Con A)-induced murine thymocite proliferation.
The compounds were administered at the dose of 25 mg/kg/day from day -4 to day -1 (thymus excision at day 0). This test was conducted following the procedure described for test 5.
The Stimulation Index (S.I.) is as defined in test 5.

Setting [3] is: 25 mg/kg/day i.p. from day -5 to day -1.

With `N=C(N)NCCC[C@H](NC(=O)OCCCCCn1cnc2c(=O)[nH]cnc21)C(=O)O` [ST 789, N-5-(ipoxantin-9-yl) pentyloxycarbonylarginine, reference compound], the “"in vitro" chemotaxis (μ ± S.E.)” value in the data set on rat granulocytes [1] is on record as 38.8 ± 4.47 μ. In addition, the “chemotactic activity of rat granulocytes versus the control (in words)” value in the data set on rat granulocytes [1] was “totally inactive”. In the data set on rat granulocytes [2], the “"in vitro-ex vivo" chemotaxis (μ ± S.E.)” value was 79.8 ± 1.53 μ. Also, in the data set with Leukemia L 1210 cells, the Dead/total is listed as 9/9. In addition, the “MST (mean survival time calculated by the median and the first interquartile range)” value in the data set with Leukemia L 1210 cells was 14.0 (14.0-15.0). Moreover, the “Weight control (x ± S.E.)” value in the data set with Leukemia L 1210 cells (Day 0) turned out to be 18.2 ± 0.3; with Leukemia L 1210 cells (Day 2), 18.0 ± 0.4; with Leukemia L 1210 cells (Day 4), 19.1 ± 0.3; in the data set on Leukemia L 1210 cells (Day 7) it was 20.1 ± 0.4; in the data set with Leukemia L 1210 cells (Day 9) it was 21.8 ± 0.4; with Leukemia L 1210 cells (Day 11) it was 24.0 ± 0.4. The “Weight control (x ± S.E.)” value in the data set on Leukemia L 1210 cells (Day 14) is on record as 22.7 ± 0.9; in the data set with Leukemia L 1210 cells (Day 16) it was 22.5. Further, the figures for the “number of surviving animals at the indicated day” value in the data set with Leukemia L 1210 cells (Day 14) and in the data set on Leukemia L 1210 cells (Day 16) were 3 and 1, respectively. For the same compound, the “Body weight” value in the data set with splenocytes (setting [3]) is 23.9 ± 0.1 g; with thymocytes it was 22.8 ± 0.5 g. Further, in the data set with splenocytes (setting [3]), the “Spleen weight” value was 87.0 ± 4.5 mg. Also, the results for the “Thymus weight” value in the data set on splenocytes (setting [3]) and in the data set on thymocytes were 64.5 ± 4.6 mg and 74.2 ± 4.4 mg, respectively. Also, the “PHA AUC (area under curve, cpm versus three mytogen concentrations)” value in the data set on splenocytes (PHA 0.5, 2 and 4 mcg/mL/well, 25 mg/kg/day i.p. from day -5 to day -1) is reported as 114 × 10^-3. Moreover, the “PHA I.S. (stimulation index)” value amounted to 1.30 with splenocytes (PHA-induced proliferation, 25 mg/kg/day i.p. from day -5 to day -1) and 1.40 in the data set on thymocytes (PHA-induced proliferation). In the data set on splenocytes (PHA, 25 mg/kg/day i.p.), the “mytogen-induced proliferation versus the controls (in words)” value is on record as “slight increase”. In addition, the “Splenocytes No. (× 10^7)” value with splenocytes (pooled samples, 25 mg/kg/day i.p. from day -5 to day -1) is on record as 10.0 × 10^7. Besides, the “Con A AUC (× 10^-3)” value with thymocytes (Con A-induced proliferation) is 68 × 10^-3. The “Con A I.S. (stimulation index)” value in the data set with thymocytes (Con A-induced proliferation) amounted to 1.10. Further, the “PHA AUC (area under curve)” value in the data set on thymocytes (PHA-induced proliferation) is on record as 3924. For the same compound, in the data set on thymocytes (pooled samples), the “Thymocytes No. (× 10^7)” value is given as 12.1 × 10^7.

For “N-5-(ipoxantin-9-yl) pentyloxycarbonyl glycyl L-aspartate disodium salt [ST 657]”, in the data set with rat granulocytes [1], the “"in vitro" chemotaxis (μ ± S.E.)” value was 54.8 ± 3.05 μ. Moreover, in the data set on rat granulocytes [1], the “chemotactic activity of rat granulocytes versus the control (in words)” value is on record as “effective in enhancing the chemotactic activity”. Besides, the “"in vitro-ex vivo" chemotaxis (μ ± S.E.)” value in the data set on rat granulocytes [2] stood at 89.3 ± 1.95 μ. Further, the Dead/total with Leukemia L 1210 cells is 10/10. For the same compound, the “MST (mean survival time calculated by the median and the first interquartile range)” value in the data set on Leukemia L 1210 cells is 15.5 (13.0-17.0). The “Weight control (x ± S.E.)” value with Leukemia L 1210 cells (Day 0) turned out to be 18.2 ± 0.5; with Leukemia L 1210 cells (Day 2), 18.2 ± 0.5; in the data set on Leukemia L 1210 cells (Day 4), 18.8 ± 0.5; in the data set on Leukemia L 1210 cells (Day 7) it was 20.1 ± 0.4; in the data set with Leukemia L 1210 cells (Day 9), 21.7 ± 0.6; in the data set with Leukemia L 1210 cells (Day 11), 23.9 ± 0.8. The “Weight control (x ± S.E.)” value is 23.1 ± 0.6 with Leukemia L 1210 cells (Day 14) and 22.4 ± 0.6 in the data set on Leukemia L 1210 cells (Day 16). Moreover, the figures for the “number of surviving animals at the indicated day” value in the data set with Leukemia L 1210 cells (Day 14) and in the data set on Leukemia L 1210 cells (Day 16) were 6 and 3, respectively.
